What was measured:
Format in all cases: cell-based
[1] = molecular target: T1, wildtype hTRPM5 (Homo sapiens, UniProt Q9NZQ8); assay: FMP dye membrane potential assay in cells transfected with wildtype hTRPM5; conditions: 10 μM ATP, cells transfected with wildtype hTRPM5, FIG. 3
T1 construct: the full length hTRPM5 was amplified by PCR using GC Melt; expressed in transfected cells; host or cells: HEK 293 cells
T1 sequence (Q9NZQ8 1-1165): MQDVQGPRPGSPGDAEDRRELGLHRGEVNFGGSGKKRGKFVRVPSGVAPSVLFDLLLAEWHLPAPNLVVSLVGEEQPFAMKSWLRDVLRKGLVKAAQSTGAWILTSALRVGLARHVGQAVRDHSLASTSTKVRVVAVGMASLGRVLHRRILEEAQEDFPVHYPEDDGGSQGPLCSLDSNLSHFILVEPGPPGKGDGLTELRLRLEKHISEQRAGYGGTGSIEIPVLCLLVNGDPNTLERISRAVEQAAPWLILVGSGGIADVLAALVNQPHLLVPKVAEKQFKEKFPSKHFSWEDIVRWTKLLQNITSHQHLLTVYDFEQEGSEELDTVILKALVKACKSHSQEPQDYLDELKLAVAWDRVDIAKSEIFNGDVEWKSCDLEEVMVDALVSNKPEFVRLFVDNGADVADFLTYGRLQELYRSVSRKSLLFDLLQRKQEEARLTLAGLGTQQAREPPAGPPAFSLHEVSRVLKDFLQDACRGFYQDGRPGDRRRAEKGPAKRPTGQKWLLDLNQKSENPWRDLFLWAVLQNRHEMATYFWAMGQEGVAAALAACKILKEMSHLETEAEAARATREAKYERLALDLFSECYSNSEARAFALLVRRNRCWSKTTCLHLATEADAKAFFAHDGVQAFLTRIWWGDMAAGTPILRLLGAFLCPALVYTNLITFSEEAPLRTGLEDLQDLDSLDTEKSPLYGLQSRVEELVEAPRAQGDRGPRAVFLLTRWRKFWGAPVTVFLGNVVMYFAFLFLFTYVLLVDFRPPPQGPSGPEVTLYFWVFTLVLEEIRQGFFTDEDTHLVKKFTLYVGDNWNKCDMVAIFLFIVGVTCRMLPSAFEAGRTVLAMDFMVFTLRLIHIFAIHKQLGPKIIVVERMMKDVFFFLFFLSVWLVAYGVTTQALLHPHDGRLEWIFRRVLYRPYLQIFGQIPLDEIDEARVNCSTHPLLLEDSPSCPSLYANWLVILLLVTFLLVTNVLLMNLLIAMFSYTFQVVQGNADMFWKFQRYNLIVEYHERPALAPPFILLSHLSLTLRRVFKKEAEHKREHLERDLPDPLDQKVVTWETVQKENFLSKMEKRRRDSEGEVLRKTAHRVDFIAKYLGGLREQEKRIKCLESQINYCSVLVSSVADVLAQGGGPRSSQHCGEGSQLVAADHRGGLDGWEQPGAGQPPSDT
Method: (§1) 5.0×10^6 HEK 293 cells (ATCC) were plated in a 10 cm culture dish at 37° C. in a CO2 incubator in Dulbecco's Modified Eagle's Medium (DMEM) supplemented with 10% Fetal Bovine Serum (FBS) and Penicillin-Streptomycin Solution. The following day, medium in the culture dish was exchanged with 15 mL of DMEM/10% FBS over a period of 3 hours. Prior to cell transfection, 24 μg of pcDNA-DEST-26-(His)6-hTRPM5 was incubated in a 5 mL polypropylene tube for 5 minutes at room temperature in 1.5 mL of OPTI-MEM media (Invitrogen). In a separate 5 mL polypropylene tube, 42 μL of Lipofectamine™ 2000 (Invitrogen) was incubated for 5 minutes at room temperature in 1.5 mL of OPTI-MEM media. After the 5 minute incubation period, the pcDNA-DEST-26-(His)6-hTRPM5 and Lipofectamine™ 2000 solutions were mixed together and incubated for an additional 20 minutes at room temperature. […] Plates were then assayed on a FLIPR Tetra reader as described.
(§2) 100 μl of the Blue or Red FMP dye (Molecular Devices) was added to each well of plates seeded with HEK cells transiently transfected with pDEST-26™-(His)6-hTRPM 5. […] The plate was read in a FLEXStation™ microplate reader (Molecular Devices) with an excitation of 530 nm and an emission of 565 nm. The fluorescence was monitored for 3 minutes upon exposure of the cells to a calcium activating agent (carbachol, thrombin peptide or ATP). […]

[2] = molecular target: T2, non-desensitizing (His)6-hTRPM5 ion channel (Homo sapiens, UniProt Q9NZQ8); assay: FMP dye membrane potential assay in cells transfected with non-desensitizing (His)6-hTRPM5; conditions: 10 μM ATP, HEK 293 cells transiently transfected with (His)6-hTRPM5, FIG. 3
T2 construct: expressed in transfected cells; host or cells: HEK 293 cells (ATCC), transient transfection with pcDNA-DEST-26-(His)6-hTRPM5
T2 sequence (Q9NZQ8 with tags, fused parts or gaps): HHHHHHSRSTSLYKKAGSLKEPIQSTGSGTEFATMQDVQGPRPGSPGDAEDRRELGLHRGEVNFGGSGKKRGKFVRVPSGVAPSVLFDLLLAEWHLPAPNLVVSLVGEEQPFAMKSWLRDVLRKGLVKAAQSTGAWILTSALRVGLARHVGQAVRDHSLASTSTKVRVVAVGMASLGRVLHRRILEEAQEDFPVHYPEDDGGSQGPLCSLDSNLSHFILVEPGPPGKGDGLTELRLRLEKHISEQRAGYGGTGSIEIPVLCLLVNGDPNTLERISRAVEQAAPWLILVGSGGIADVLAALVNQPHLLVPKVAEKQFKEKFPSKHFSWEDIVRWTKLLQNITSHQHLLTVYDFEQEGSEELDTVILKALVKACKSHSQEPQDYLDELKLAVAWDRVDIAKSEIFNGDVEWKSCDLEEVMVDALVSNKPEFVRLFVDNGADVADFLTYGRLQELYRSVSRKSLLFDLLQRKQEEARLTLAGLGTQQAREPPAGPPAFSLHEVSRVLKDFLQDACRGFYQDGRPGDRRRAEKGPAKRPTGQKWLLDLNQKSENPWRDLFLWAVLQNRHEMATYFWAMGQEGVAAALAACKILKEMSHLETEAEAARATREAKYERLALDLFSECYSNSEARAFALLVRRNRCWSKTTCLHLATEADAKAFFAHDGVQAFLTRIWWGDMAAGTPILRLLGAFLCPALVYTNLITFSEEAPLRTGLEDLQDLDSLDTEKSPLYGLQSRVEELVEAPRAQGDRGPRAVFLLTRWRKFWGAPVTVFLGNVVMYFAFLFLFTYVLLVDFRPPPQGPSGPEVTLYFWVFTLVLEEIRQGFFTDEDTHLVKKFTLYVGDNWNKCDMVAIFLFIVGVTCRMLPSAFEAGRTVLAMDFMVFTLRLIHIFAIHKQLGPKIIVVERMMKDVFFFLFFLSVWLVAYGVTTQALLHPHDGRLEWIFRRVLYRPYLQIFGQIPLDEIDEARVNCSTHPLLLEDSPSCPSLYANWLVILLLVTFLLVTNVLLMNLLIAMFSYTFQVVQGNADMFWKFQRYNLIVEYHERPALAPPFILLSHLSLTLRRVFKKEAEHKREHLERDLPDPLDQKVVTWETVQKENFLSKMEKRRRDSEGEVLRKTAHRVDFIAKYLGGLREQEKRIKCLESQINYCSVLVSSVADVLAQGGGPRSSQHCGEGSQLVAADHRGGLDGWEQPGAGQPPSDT
Method: as §1, with “media.” for “media. After the 5 minute incubation period, the pcDNA-DEST-26-(His)6-hTRPM5 and Lipofectamine™ 2000 solutions were mixed together and incubated for an additional 20 minutes at room temperature.”
as §2
Cells transfected with non-desensitizing (His)6-hTRPM5 DNA were loaded with FMP dye and then treated with 10 μM ATP and monitored for an increase in cellular fluorescence in the FLEXstation™. […]

[3] = test system: cells transfected with PSV3 Neo; assay: FMP dye membrane potential assay in sham cells transfected with PSV3 Neo empty vector; conditions: 10 μM ATP, sham control, FIG. 3
Method: 100 μl of the Blue or Red FMP dye (Molecular Devices) was added to each well of plates seeded with HEK cells transiently transfected with pDEST-26™-(His)6-hTRPM 5. The plate was then incubated in a 37° C. /5% CO2 incubator for 1 hour. The plate was read in a FLEXStation™ microplate reader (Molecular Devices) with an excitation of 530 nm and an emission of 565 nm. The fluorescence was monitored for 3 minutes upon exposure of the cells to a calcium activating agent (carbachol, thrombin peptide or ATP).
Cells transfected with either wildtype hTRPM5 DNA, non-desensitizing (His)6-hTRPM5 DNA or PSV3 Neo were loaded with FMP dye and then treated with 10 μM ATP and monitored for an increase in cellular fluorescence in the FLEXstation™.

**Q.** Which “duration of increase in fluorescence (initial activation) before rapid inactivation” value [1] does the source give for Nc1ncnc2c1ncn2[C@@H]1O[C@H](COP(=O)(O)OP(=O)(O)OP(=O)(O)O)[C@@H](O)[C@H]1O [ATP, adenosine triphosphate] here?
**A.** about 30 seconds

**Q.** What about the “time for which fluorescence is observed at significant levels after activation” value [2] of the same compound?
**A.** more than 3 minutes

**Q.** And the “membrane potential response (cellular fluorescence) to application” value [3]?
**A.** no significant response

From patent US7875452B2, “Non-desensitizing mutant of the transient receptor potential TRPM5 ion channel” (Redpoint Bio Corporation, priority 2007, dated 2011)
